Experimental data published in paper PMC6946862 (Molecular carcinogenesis, 2019).

Target: NAE1 (APP-BP1/UBA3, NEDD8-activating enzyme E1 regulatory subunit) (Homo sapiens, UniProt Q13564)
Assay: in vitro NEDD8 initiation conjugation assay
Assay type: biochemical

Sequence of NAE1 (APP-BP1/UBA3, NEDD8-activating enzyme E1 regulatory subunit) (Q13564 2-534): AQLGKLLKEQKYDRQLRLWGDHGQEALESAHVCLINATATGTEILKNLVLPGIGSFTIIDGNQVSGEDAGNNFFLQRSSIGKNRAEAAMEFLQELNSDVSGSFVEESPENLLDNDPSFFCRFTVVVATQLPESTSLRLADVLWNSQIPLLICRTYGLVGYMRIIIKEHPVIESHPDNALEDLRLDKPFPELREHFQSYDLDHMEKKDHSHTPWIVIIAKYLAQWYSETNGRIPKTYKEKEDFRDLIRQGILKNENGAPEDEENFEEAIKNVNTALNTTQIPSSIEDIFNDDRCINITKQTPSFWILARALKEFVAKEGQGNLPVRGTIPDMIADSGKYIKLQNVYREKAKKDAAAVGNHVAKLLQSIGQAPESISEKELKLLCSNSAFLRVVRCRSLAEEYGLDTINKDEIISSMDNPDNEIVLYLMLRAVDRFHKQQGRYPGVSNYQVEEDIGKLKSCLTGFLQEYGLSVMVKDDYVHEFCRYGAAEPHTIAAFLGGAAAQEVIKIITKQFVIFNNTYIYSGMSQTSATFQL
Sequence of NAE1 (APP-BP1/UBA3, NEDD8-activating enzyme E1 regulatory subunit) (Q8TBC4 2-463 partner): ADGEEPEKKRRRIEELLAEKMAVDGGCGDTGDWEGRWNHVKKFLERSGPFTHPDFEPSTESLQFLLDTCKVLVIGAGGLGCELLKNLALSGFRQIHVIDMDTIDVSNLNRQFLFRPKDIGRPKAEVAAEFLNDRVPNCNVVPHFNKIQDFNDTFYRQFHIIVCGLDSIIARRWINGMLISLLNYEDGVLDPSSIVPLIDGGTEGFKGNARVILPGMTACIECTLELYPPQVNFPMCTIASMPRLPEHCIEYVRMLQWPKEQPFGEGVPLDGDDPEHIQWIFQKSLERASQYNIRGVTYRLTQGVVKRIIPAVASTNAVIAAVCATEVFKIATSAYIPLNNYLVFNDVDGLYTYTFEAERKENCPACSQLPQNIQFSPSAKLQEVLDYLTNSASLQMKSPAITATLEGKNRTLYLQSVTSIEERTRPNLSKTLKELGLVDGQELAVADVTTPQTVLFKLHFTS
Sequence of NAE1 (APP-BP1/UBA3, NEDD8-activating enzyme E1 regulatory subunit) (P61081 whole entry partner): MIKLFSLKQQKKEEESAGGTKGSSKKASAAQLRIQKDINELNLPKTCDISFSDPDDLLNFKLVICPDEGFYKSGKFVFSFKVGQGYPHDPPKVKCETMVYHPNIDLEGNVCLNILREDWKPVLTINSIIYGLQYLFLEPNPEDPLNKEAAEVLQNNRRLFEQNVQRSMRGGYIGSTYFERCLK
Sequence of NAE1 (APP-BP1/UBA3, NEDD8-activating enzyme E1 regulatory subunit) (Q15843 1-76 partner): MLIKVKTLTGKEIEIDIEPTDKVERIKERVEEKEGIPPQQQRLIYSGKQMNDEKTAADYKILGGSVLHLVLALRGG

For `CC(C)=CCc1c(O)c(CC=C(C)C)c2oc3c(O)ccc(O)c3c(=O)c2c1O` [Gartanin], the IC50 was roughly 10.3 µM.
